Laboratory results as given in patent US20230398130A1, “METHODS AND COMPOSITIONS FOR DIFFERENTIATING STEM CELLS” (Massachusetts Institute of Technology, priority 2020, published 2023).

Columns and labels:
ISC-enriched organoids [1] = test: Primary screen, 384-well 2.5-D organoid differentiation (ENR+CD, 6 days): basal lysozyme secretion (LYZ.NS); format: cell-based, murine; conditions: for Dose.FC.LYZ.NS / Z.LYZ.NS (standard z score) / Dose.FC.LYZ.NS (log 2 fold change): primary screen; for Dose.FC.LYZ.NS: FC vs plate median; for Z.LYZ.NS: standard z score of FC; for Dose.FC.LYZ.NS (log 2 fold change): vs plate median
From the text: (§1) High-throughput screening.

ISC-enriched organoids [2] = test: Primary screen, 384-well 2.5-D organoid differentiation (ENR+CD, 6 days): carbachol-induced lysozyme secretion (LYZ.S); format: cell-based, murine; conditions: primary screen; for Dose.FC.LYZ.S: FC vs plate median; for Dose.FC.LYZ.S (log 2 fold change): vs plate median
From the text: as §1

ISC-enriched organoids [3] = test: Primary screen, 384-well 2.5-D organoid differentiation (ENR+CD, 6 days, Target Selective Inhibitor Library, vs whole-plate median): ATP (CellTiter-Glo 3D, CTG); conditions: for Dose.FC.CTG / Z.CTG (standard z score) / Dose.FC.CTG (log 2 fold change): primary screen; for Dose.FC.CTG: FC vs plate median; for Z.CTG: standard z score of FC; for Dose.FC.CTG (log 2 fold change): vs plate median

SMILES	Dose.FC.LYZ.NS (ISC-enriched organoids [1]; Dose 0.08 uM) [log 2 fold change]	Z.LYZ.NS (ISC-enriched organoids [1]; Dose 0.08 uM)	Z.LYZ.NS (standard z score) (ISC-enriched organoids [1]; Dose 0.40 uM)	Dose.FC.LYZ.NS (log 2 fold change) (ISC-enriched organoids [1]; Dose 0.40 uM)	Z.LYZ.NS (standard z score) (ISC-enriched organoids [1]; Dose 2.00 uM)	Dose.FC.LYZ.NS (log 2 fold change) (ISC-enriched organoids [1]; Dose 2.00 uM)	Z.LYZ.NS (standard z score) (ISC-enriched organoids [1]; Dose 10.00 uM)	Dose.FC.LYZ.NS (log 2 fold change) (ISC-enriched organoids [1]; Dose 10.00 uM)	Dose.FC.LYZ.S (ISC-enriched organoids [2]; Dose 0.08 uM) [log 2 fold change]	Dose.FC.LYZ.S (log 2 fold change) (ISC-enriched organoids [2]; Dose 0.40 uM)	Dose.FC.LYZ.S (log 2 fold change) (ISC-enriched organoids [2]; Dose 2.00 uM)	Dose.FC.LYZ.S (log 2 fold change) (ISC-enriched organoids [2]; Dose 10.00 uM)	Dose.FC.CTG (ISC-enriched organoids [3]; Dose 0.08 uM) [log 2 fold change]	Z.CTG (ISC-enriched organoids [3]; Dose 0.08 uM)	Z.CTG (standard z score) (ISC-enriched organoids [3]; Dose 0.40 uM)	Dose.FC.CTG (log 2 fold change) (ISC-enriched organoids [3]; Dose 0.40 uM)	Z.CTG (standard z score) (ISC-enriched organoids [3]; Dose 2.00 uM)	Dose.FC.CTG (log 2 fold change) (ISC-enriched organoids [3]; Dose 2.00 uM)	Z.CTG (standard z score) (ISC-enriched organoids [3]; Dose 10.00 uM)	Dose.FC.CTG (log 2 fold change) (ISC-enriched organoids [3]; Dose 10.00 uM)	other results
N#CSc1cc(SC#N)c(N)nc1N [PR-619]	0.100	0.872	0.448	0.051	0.495	0.057	−1.687	−0.194	0.122	0.047	0.081	−0.193	0.054	0.130	0.266	0.111	0.053	0.022	−0.764	−0.320	
Cl.NC(=O)c1cnc(N[C@@H]2CCCC[C@@H]2N)nc1Nc1cccc(-n2nccn2)c1 [PRT062607 (P505-15, BIIB057) HCl]			0.194	0.022	−0.280	−0.032	−1.837	−0.211		0.122	−0.123	−0.298			0.191	0.080	−0.179	−0.075	−0.788	−0.330	Z.LYZ.NS (standard z score) (ISC-enriched organoids [1]; Dose 0.08 uM): 0.037; Dose.FC.LYZ.NS (log 2 fold change) (ISC-enriched organoids [1]; Dose 0.08 uM): 0.004; Dose.FC.LYZ.S (log 2 fold change) (ISC-enriched organoids [2]; Dose 0.08 uM): −0.033; Z.CTG (standard z score) (ISC-enriched organoids [3]; Dose 0.08 uM): −0.219; Dose.FC.CTG (log 2 fold change) (ISC-enriched organoids [3]; Dose 0.08 uM): −0.092
COc1cc(Br)c(Nc2nc(-c3c(C)nc4ncccn34)cs2)c(Br)c1 [PTC-209]			−0.509	−0.058	−1.753	−0.201	−1.975	−0.227		0.045	−0.289	−0.300			−0.495	−0.207	−3.397	−1.422	−3.708	−1.553	Z.LYZ.NS (standard z score) (ISC-enriched organoids [1]; Dose 0.08 uM): 0.294; Dose.FC.LYZ.NS (log 2 fold change) (ISC-enriched organoids [1]; Dose 0.08 uM): 0.034; Dose.FC.LYZ.S (log 2 fold change) (ISC-enriched organoids [2]; Dose 0.08 uM): 0.007; Z.CTG (standard z score) (ISC-enriched organoids [3]; Dose 0.08 uM): −0.259; Dose.FC.CTG (log 2 fold change) (ISC-enriched organoids [3]; Dose 0.08 uM): −0.108
CCOC(=O)c1ccc(N2NC(=O)/C(=C/c3ccc([N+](=O)[O-])o3)C2=O)cc1 [PYR-41]			0.777	0.089	0.568	0.065	0.861	0.099		0.076	0.049	0.129			0.762	0.319	0.385	0.161	0.229	0.096	Z.LYZ.NS (standard z score) (ISC-enriched organoids [1]; Dose 0.08 uM): 1.305; Dose.FC.LYZ.NS (log 2 fold change) (ISC-enriched organoids [1]; Dose 0.08 uM): 0.150; Dose.FC.LYZ.S (log 2 fold change) (ISC-enriched organoids [2]; Dose 0.08 uM): 0.193; Z.CTG (standard z score) (ISC-enriched organoids [3]; Dose 0.08 uM): 0.609; Dose.FC.CTG (log 2 fold change) (ISC-enriched organoids [3]; Dose 0.08 uM): 0.255
C1=N/C2=N/c3ccc(OCCN4CCCC4)c(c3)COC/C=C/COCc3cccc(c3)C(=C1)N2 [Pacritinib (SB1518)]	0.091	0.795							0.066				−0.006	−0.014							Dose.FC.LYZ.NS (ISC-enriched organoids [1]; Dose 0.40 uM): −0.034 log 2 fold change; Z.LYZ.NS (ISC-enriched organoids [1]; Dose 0.40 uM): −0.299; Dose.FC.LYZ.NS (ISC-enriched organoids [1]; Dose 2.00 uM): −0.219 log 2 fold change; Z.LYZ.NS (ISC-enriched organoids [1]; Dose 2.00 uM): −1.908; Dose.FC.LYZ.NS (ISC-enriched organoids [1]; Dose 10.00 uM): −0.275 log 2 fold change; Z.LYZ.NS (ISC-enriched organoids [1]; Dose 10.00 uM): −2.391; Dose.FC.LYZ.S (ISC-enriched organoids [2]; Dose 0.40 uM): −0.032 log 2 fold change; Dose.FC.LYZ.S (ISC-enriched organoids [2]; Dose 2.00 uM): −0.304 log 2 fold change; Dose.FC.LYZ.S (ISC-enriched organoids [2]; Dose 10.00 uM): −0.419 log 2 fold change; Dose.FC.CTG (ISC-enriched organoids [3]; Dose 0.40 uM): 0.099 log 2 fold change; Z.CTG (ISC-enriched organoids [3]; Dose 0.40 uM): 0.236; Dose.FC.CTG (ISC-enriched organoids [3]; Dose 2.00 uM): −0.235 log 2 fold change; Z.CTG (ISC-enriched organoids [3]; Dose 2.00 uM): −0.560; Dose.FC.CTG (ISC-enriched organoids [3]; Dose 10.00 uM): −1.276 log 2 fold change; Z.CTG (ISC-enriched organoids [3]; Dose 10.00 uM): −3.047
CC(=O)c1c(C)c2cnc(Nc3ccc(N4CCNCC4)cn3)nc2n(C2CCCC2)c1=O.Cl [Palbociclib (PD-0332991) HCl]	−0.006	−0.055							0.004				0.169	0.404							Dose.FC.LYZ.NS (ISC-enriched organoids [1]; Dose 0.40 uM): −0.029 log 2 fold change; Z.LYZ.NS (ISC-enriched organoids [1]; Dose 0.40 uM): −0.248; Dose.FC.LYZ.NS (ISC-enriched organoids [1]; Dose 2.00 uM): −0.051 log 2 fold change; Z.LYZ.NS (ISC-enriched organoids [1]; Dose 2.00 uM): −0.440; Dose.FC.LYZ.NS (ISC-enriched organoids [1]; Dose 10.00 uM): −0.132 log 2 fold change; Z.LYZ.NS (ISC-enriched organoids [1]; Dose 10.00 uM): −1.150; Dose.FC.LYZ.S (ISC-enriched organoids [2]; Dose 0.40 uM): −0.042 log 2 fold change; Dose.FC.LYZ.S (ISC-enriched organoids [2]; Dose 2.00 uM): −0.122 log 2 fold change; Dose.FC.LYZ.S (ISC-enriched organoids [2]; Dose 10.00 uM): −0.203 log 2 fold change; Dose.FC.CTG (ISC-enriched organoids [3]; Dose 0.40 uM): −0.350 log 2 fold change; Z.CTG (ISC-enriched organoids [3]; Dose 0.40 uM): −0.836; Dose.FC.CTG (ISC-enriched organoids [3]; Dose 2.00 uM): −0.083 log 2 fold change; Z.CTG (ISC-enriched organoids [3]; Dose 2.00 uM): −0.199; Dose.FC.CTG (ISC-enriched organoids [3]; Dose 10.00 uM): −0.677 log 2 fold change; Z.CTG (ISC-enriched organoids [3]; Dose 10.00 uM): −1.617
CC(=O)O[C@H]1C[C@@H]2CC[C@@H]3[C@H](CC[C@@]4(C)[C@H]3C[C@H]([N+]3(C)CCCCC3)[C@@H]4OC(C)=O)[C@@]2(C)C[C@@H]1[N+]1(C)CCCCC1.[Br-].[Br-] [Pancuronium dibromide]	0.128	1.118							0.213				0.217	0.519							Dose.FC.LYZ.NS (ISC-enriched organoids [1]; Dose 0.40 uM): 0.047 log 2 fold change; Z.LYZ.NS (ISC-enriched organoids [1]; Dose 0.40 uM): 0.406; Dose.FC.LYZ.NS (ISC-enriched organoids [1]; Dose 2.00 uM): 0.093 log 2 fold change; Z.LYZ.NS (ISC-enriched organoids [1]; Dose 2.00 uM): 0.806; Dose.FC.LYZ.NS (ISC-enriched organoids [1]; Dose 10.00 uM): 0.035 log 2 fold change; Z.LYZ.NS (ISC-enriched organoids [1]; Dose 10.00 uM): 0.302; Dose.FC.LYZ.S (ISC-enriched organoids [2]; Dose 0.40 uM): 0.094 log 2 fold change; Dose.FC.LYZ.S (ISC-enriched organoids [2]; Dose 2.00 uM): 0.099 log 2 fold change; Dose.FC.LYZ.S (ISC-enriched organoids [2]; Dose 10.00 uM): 0.004 log 2 fold change; Dose.FC.CTG (ISC-enriched organoids [3]; Dose 0.40 uM): 0.226 log 2 fold change; Z.CTG (ISC-enriched organoids [3]; Dose 0.40 uM): 0.541; Dose.FC.CTG (ISC-enriched organoids [3]; Dose 2.00 uM): −0.012 log 2 fold change; Z.CTG (ISC-enriched organoids [3]; Dose 2.00 uM): −0.029; Dose.FC.CTG (ISC-enriched organoids [3]; Dose 10.00 uM): 0.062 log 2 fold change; Z.CTG (ISC-enriched organoids [3]; Dose 10.00 uM): 0.148
Cc1[nH]c2ccccc2c1CCNCc1ccc(/C=C/C(=O)NO)cc1 [Panobinostat (LBH589)]	0.002	0.014							−0.034				0.295	0.706							Dose.FC.LYZ.NS (ISC-enriched organoids [1]; Dose 0.40 uM): −0.027 log 2 fold change; Z.LYZ.NS (ISC-enriched organoids [1]; Dose 0.40 uM): −0.232; Dose.FC.LYZ.NS (ISC-enriched organoids [1]; Dose 2.00 uM): −0.153 log 2 fold change; Z.LYZ.NS (ISC-enriched organoids [1]; Dose 2.00 uM): −1.329; Dose.FC.LYZ.NS (ISC-enriched organoids [1]; Dose 10.00 uM): −0.217 log 2 fold change; Z.LYZ.NS (ISC-enriched organoids [1]; Dose 10.00 uM): −1.891; Dose.FC.LYZ.S (ISC-enriched organoids [2]; Dose 0.40 uM): −0.042 log 2 fold change; Dose.FC.LYZ.S (ISC-enriched organoids [2]; Dose 2.00 uM): −0.285 log 2 fold change; Dose.FC.LYZ.S (ISC-enriched organoids [2]; Dose 10.00 uM): −0.320 log 2 fold change; Dose.FC.CTG (ISC-enriched organoids [3]; Dose 0.40 uM): 0.212 log 2 fold change; Z.CTG (ISC-enriched organoids [3]; Dose 0.40 uM): 0.506; Dose.FC.CTG (ISC-enriched organoids [3]; Dose 2.00 uM): −0.537 log 2 fold change; Z.CTG (ISC-enriched organoids [3]; Dose 2.00 uM): −1.283; Dose.FC.CTG (ISC-enriched organoids [3]; Dose 10.00 uM): −1.003 log 2 fold change; Z.CTG (ISC-enriched organoids [3]; Dose 10.00 uM): −2.395
